Where two headings read alike, the source gives them in different places.
How the values were obtained:
[1] = In vivo pharmacokinetics, rat; set-up: species or system Sprague Dawley rats; details: male, Sprague Dawley, plasma, oral 3.0 mg/kg
Experimental: Example H. In Vivo Pharmacokinetics
Test compounds were administered to male Sprague Dawley rats or male and female Cynomolgus monkeys intravenously or via oral gavage. For intravenous (IV) dosing, test compounds were dosed at 1 mg/kg using a formulation of 10% dimethylacetamide (DMAC), 10% propylene glycol (PG) in acidified saline via IV bolus for rat or 10 min IV infusion for monkey. For oral (PO) dosing, test compounds were dosed at 3.0 mg/kg using 5% DMAC in 0.5% methylcellulose in citrate buffer (pH˜2.5). Blood samples were collected at predose and various time points up to 24 hours postdose. All blood samples were collected using EDTA as the anticoagulant and centrifuged to obtain plasma samples. The plasma concentrations of test compounds were determined by LC-MS/MS methods. The measured plasma concentrations were used to calculate PK parameters by standard noncompartmental methods using Phoenix® WinNonlin software program (version 8.0, Pharsight Corporation) or similar software. In rats and monkeys, cassette dosing of test compounds were conducted to obtain preliminary PK parameters. In vivo pharmacokinetic experiments with male beagle dogs may be performed under the conditions described above.

FLT3 = FLT3 enzymatic assay; format: biochemical
In short: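 Kinase reaction at room temperature in HEPES 50 mM pH 7.0 with 10 mM MgCl2, 1 mM DTT: 0.011 nM FLT3, 1 mM ATP, 500 nM biotinylated TK substrate, 0.5% DMSO. After 60 min, HTRF read as 665/620 nm ratio; IC50 from fit of percent control activity versus log concentration.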

[2] = biological target: T1, pseudo-kinase domain (JH2) of human V617F mutant JAK2 (Homo sapiens, UniProt O60674, F794H/V617F/W659A/W777A); test: JAK2 LanthaScreen JH2-V617F binding assay; details: read-out: JH2 V617F Bind IC50
T1 construct: pseudo-kinase domain (JH2, amino-acids 536-812 with 3 surface mutations W659A, W777A, F794H); His (C); purchased BPS Bioscience 79498; host or cells: baculovirus expression system
T1 sequence (O60674 536-812 V617F/W659A/W777A/F794H): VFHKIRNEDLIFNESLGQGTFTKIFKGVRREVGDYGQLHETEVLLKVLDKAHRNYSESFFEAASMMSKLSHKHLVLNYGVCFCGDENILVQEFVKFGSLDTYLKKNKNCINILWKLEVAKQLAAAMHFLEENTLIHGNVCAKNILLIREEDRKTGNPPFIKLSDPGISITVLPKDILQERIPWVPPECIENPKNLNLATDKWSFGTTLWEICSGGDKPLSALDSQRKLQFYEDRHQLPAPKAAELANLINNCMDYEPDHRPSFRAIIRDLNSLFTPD
Experimental: Example B. JAK2 LanthaScreen JH2-V617F Binding Assay
JAK2 JH2-V617F binding assay utilizes pseudo-kinase domain (JH2, amino-acids 536-812 with 3 surface mutations W659A, W777A, F794H) of human V617F mutant JAK2 expressed as C-terminal His-Avi-tagged, biotinylated protein in a baculovirus expression system (BPS Bioscience, Catalog #79498). The assay was conducted in black 384-well polystyrene plates in a final reaction volume of 20 μL. JAK2 JH2-V617F (0.26 nM) was incubated with compounds (100 nL serially diluted in DMSO) in the presence of 50 nM Fluorescent JAK2-JH2 Tracer (MedChem Express Catalog #HY-102055) and 0.25 nM Streptavidin-Tb cryptate (Cisbio Part #610SATLB) in assay buffer (50 mM Tris, pH=7.5, 10 mM MgCl2, 0.01% Brij-35, 0.1% BSA, 1 mM EGTA, 5% Glycerol and 5 mM DTT). Non-specific binding was accessed in the presence of 2 mM ATP. After incubation for 1 hour at 25° C., LanthaScreen signals were read on a PHERAstar FS plate reader (BMG LABTECH). Data was analyzed with IDBS XLfit and GraphPad Prism 5.0 software using a four parameter dose response curve to determine IC50 for each compound.

[3] = tested on: pSTAT5 signaling in SET-2 cells in whole blood; test: pSTAT5 SET-2 whole blood MSD assay; format: cell-based; details: Homo sapiens, pSTAT5, 2 hour, read-out: SET2 WB IC50
Experimental: Example F. pSTAT5 SET-2 Whole Blood MSD Assay
SET-2 cells shipped from ABS, RPMI1640 medium, Fetal Bovine Serum from Gibco, Phospho-STAT5a,b Whole Cell Lysate Kit from Mesoscale, Retronectin (Recombinant Human Fibronectin Fragment) from TaKaRa, 96 well cell culture plate flat bottom from Corning, lysis buffer from Cell Signaling Technology, and sterile PBS from Gibco. Whole Blood from by BioIVT.
SET-2 cells were cultured in RPMI media with 20% FBS at 37° C. humidified incubator supplied with 5% CO2. On the day of the assay, 40 uL per well of diluted retronectin working solution was added to sterile 96-well clear flat bottom tissue culture plates (1:200 dilution of retronectin in sterile PBS) and incubated at 37 C for 1 hour. After 1 hour, the retronectin working solution was aspirated and SET-2 cells were seeded at 100,000/well in RPMI+20% FBS. Cells were incubated overnight at 37° C. and 5% CO2. The next day, the medium was removed and 40 μL of diluted compounds in serum-free RPMI and whole blood was added to the cells for a 2 hour incubation at 37° C. and 5% CO2. The compound starting concentration is 20 μM and 2.5 fold serial diluted down to 0.21 nM. The whole blood and compound mixture was then aspirated off using the BlueCat plate washer and washed 1× with PBS. Cells were lysed by adding 40 μL of 3× complete lysis buffer and shaken at room temperature for 45-60 minutes (complete lysis buffer consists of Cell Signaling Technology lysis buffer diluted to 3× and supplemented with Mesoscale's protease inhibitor, phosphatase I inhibitor, and phosphatase II inhibitor). The pSTAT5 MSD plates were blocked by adding 150 μL of Blocker A solution per well to the MSD plates and incubated at room temperature with shaking at 400 rpm for one hour or longer. After blocking, plates were washed 3× with 300 μL/well of IX Tris Wash Buffer. After lysis, added 25 μL per well of lysed sample was added to MSD plate and incubated with shaking at 4° C. wrapped in foil overnight. The next day, plates were washed again and 25 μL/well of diluted 1× Detection Antibody Solution, wrapped in foil, and incubated at room temperature with shaking at 400 rpm for 1 hour. Plates were then washed again and lastly, 150 μL/well of 1× Read Buffer T was added to all wells. Plates were analyzed on MSD Discovery within 5 minutes. […] Data analysis was performed in GraphPad Prism using a 4-parameter fit and data was reported as Average±SD.

Structure (SMILES) | AUC [1] [µM·h] | Selectivity FLT3/JH2 V617F (FLT3) | IC50 ([2]; Table A) [µM] | IC50 ([2]; Table C) [µM] | IC50 [3] [µM]
[2H]C([2H])([2H])n1cc(-c2[nH]c3ncc4c(c3c2-c2ccc(F)cc2)n([C@@H]2CC[C@@H](NC(=O)OC)C2)c(=O)n4C([2H])([2H])[2H])c(F)n1 [Example 7, Methyl ((1R,3R)-3-(7-(3-fluoro-1-(methyl-d3)-1H-pyrazol-4-yl)-8-(4-fluorophenyl)-3-(methyl-d3)-2-oxo-3,6-dihydroimidazo[4,5-d]pyrrolo[2,3-b]pyridin-1(2H)-yl)cyclopentyl)carbamate] | > 1.5 | **** (selectivity of >1750-fold to ≤5000-fold) | ≤ 0.01 | ≤ 0.01 | 2.5 to 5
[2H]C([2H])([2H])n1cc(-c2[nH]c3ncc4c(c3c2-c2ccc3c(c2)COC3(C)C)n([C@@H]2CC[C@@H](NC(=O)OC)C2)c(=O)n4C([2H])([2H])[2H])c(F)n1 [Example 8, Methyl ((1R,3R)-3-(8-(1,1-dimethyl-1,3-dihydroisobenzofuran-5-yl)-7-(3-fluoro-1-(methyl-d3)-1H-pyrazol-4-yl)-3-(methyl-d3)-2-oxo-3,6-dihydroimidazo[4,5-d]pyrrolo[2,3-b]pyridin-1(2H)-yl)cyclopentyl)carbamate] | > 1.5 | ****** (selectivity of >12500-fold) | ≤ 0.01 | ≤ 0.01 | ≤ 2.5
[2H]C([2H])([2H])Oc1ccc(-c2c(-c3cn(C([2H])([2H])[2H])nc3F)[nH]c3ncc4c(c23)n([C@@H]2CC[C@@H](NC(=O)OC)C2)c(=O)n4C([2H])([2H])[2H])cc1 [Example 9, Methyl ((1R,3R)-3-(7-(3-fluoro-1-(methyl-d3)-1H-pyrazol-4-yl)-8-(4-(methoxy-d3)phenyl)-3-(methyl-d3)-2-oxo-3,6-dihydroimidazo[4,5-d]pyrrolo[2,3-b]pyridin-1(2H)-yl)cyclopentyl)carbamate] | > 1.5 | ***** (selectivity of >5000-fold to ≤12500-fold) | ≤ 0.01 | ≤ 0.01 | 2.5 to 5
[2H]C([2H])([2H])n1cc(-c2[nH]c3ncc4c(c3c2-c2ccc(C(C)(C)O)cc2)n([C@@H]2CC[C@@H](NC(=O)OC)C2)c(=O)n4C([2H])([2H])[2H])c(F)n1 [Example 10, Methyl ((1R,3R)-3-(7-(3-fluoro-1-(methyl-d3)-1H-pyrazol-4-yl)-8-(4-(2-hydroxypropan-2-yl)phenyl)-3-(methyl-d3)-2-oxo-3,6-dihydroimidazo[4,5-d]pyrrolo[2,3-b]pyridin-1(2H)-yl)cyclopentyl)carbamate] | > 1.5 | **** (selectivity of >1750-fold to ≤5000-fold) | ≤ 0.01 | ≤ 0.01 | ≤ 2.5
[2H]C([2H])([2H])n1cc(-c2[nH]c3ncc4c(c3c2-c2ccc3c(cnn3C(C)C)c2)n([C@@H]2CC[C@@H](NC(=O)OC)C2)c(=O)n4C([2H])([2H])[2H])c(F)n1 [Example 13, Methyl ((1R,3R)-3-(7-(3-fluoro-1-(methyl-d3)-1H-pyrazol-4-yl)-8-(1-isopropyl-1H-indazol-5-yl)-3-(methyl-d3)-2-oxo-3,6-dihydroimidazo[4,5-d]pyrrolo[2,3-b]pyridin-1(2H)-yl)cyclopentyl)carbamate] | 0.5 to 1.5 | ****** (selectivity of >12500-fold) | ≤ 0.01 | ≤ 0.01 | ≤ 2.5
[2H]C([2H])([2H])n1cc(-c2[nH]c3ncc4c(c3c2-c2ccc3c(cnn3CC(F)F)c2)n([C@@H]2CC[C@@H](NC(=O)OC)C2)c(=O)n4C([2H])([2H])[2H])c(F)n1 [Example 14, Methyl ((1R,3R)-3-(8-(1-(2,2-difluoroethyl)-1H-indazol-5-yl)-7-(3-fluoro-1-(methyl-d3)-1H-pyrazol-4-yl)-3-(methyl-d3)-2-oxo-3,6-dihydroimidazo[4,5-d]pyrrolo[2,3-b]pyridin-1(2H)-yl)cyclopentyl)carbamate] | 0.5 to 1.5 | ****** (selectivity of >12500-fold) | ≤ 0.01 | ≤ 0.01 | ≤ 2.5
[2H]C([2H])([2H])n1ncc2cc(-c3c(-c4cn(C([2H])([2H])C([2H])([2H])[2H])nc4F)[nH]c4ncc5c(c34)n([C@@H]3CC[C@@H](NC(=O)OC)C3)c(=O)n5C([2H])([2H])[2H])ccc21 [Example 15, Methyl ((1R,3R)-3-(7-(1-(ethyl-d5)-3-fluoro-1H-pyrazol-4-yl)-3-(methyl-d3)-8-(1-(methyl-d3)-1H-indazol-5-yl)-2-oxo-3,6-dihydroimidazo[4,5-d]pyrrolo[2,3-b]pyridin-1(2H)-yl)cyclopentyl)carbamate] | 0.5 to 1.5 | ***** (selectivity of >5000-fold to ≤12500-fold) | ≤ 0.01 | ≤ 0.01 | ≤ 2.5

Source: US12084430B2, “Tricyclic urea compounds as JAK2 V617F inhibitors” (Incyte Corporation, priority 2022, dated 2024)
